Measurements reported in ChEMBL document CHEMBL4665642, “Anticancer profile of newly synthesized BRAF inhibitors possess 5-(pyrimidin-4-yl)imidazo[2,1-b]thiazole scaffold” (Bioorg Med Chem, 2019).

What was measured:
Type in all cases: functional
Conditions in all cases: read-out: Activity
[1] = tested on: NCI-H322M; test: Cytotoxicity against human NCI-H322M cells assessed as cell viability at 10 uM incubated for 48 hrs by sulforhodamine B assay relative to control
[2] = tested on: TK-10; test: Cytotoxicity against human TK-10 cells assessed as cell viability at 10 uM incubated for 48 hrs by sulforhodamine B assay relative to control
[3] = tested on: CAKI-1; test: Cytotoxicity against human CAKI-1 cells assessed as cell viability at 10 uM incubated for 48 hrs by sulforhodamine B assay relative to control
[4] = tested on: MCF7; test: Cytotoxicity against human MCF7 cells assessed as cell viability at 10 uM incubated for 48 hrs by sulforhodamine B assay relative to control
[5] = tested on: NCI/ADR-RES; test: Cytotoxicity against human NCI/ADR-RES cells assessed as cell viability at 10 uM incubated for 48 hrs by sulforhodamine B assay relative to control
[6] = tested on: SF-539; test: Cytotoxicity against human SF-539 cells assessed as cell viability at 10 uM incubated for 48 hrs by sulforhodamine B assay relative to control
[7] = tested on: Malme-3M; test: Cytotoxicity against human Malme-3M cells assessed as cell viability at 10 uM incubated for 48 hrs by sulforhodamine B assay relative to control
[8] = tested on: HOP-92; test: Cytotoxicity against human HOP-92 cells assessed as cell viability at 10 uM incubated for 48 hrs by sulforhodamine B assay relative to control
[9] = tested on: U-251; test: Cytotoxicity against human U-251 cells assessed as cell viability at 10 uM incubated for 48 hrs by sulforhodamine B assay relative to control
[10] = tested on: M14; test: Cytotoxicity against human M14 cells assessed as cell viability at 10 uM incubated for 48 hrs by sulforhodamine B assay relative to control
[11] = tested on: A549; test: Cytotoxicity against human A549 cells assessed as cell viability at 10 uM incubated for 48 hrs by sulforhodamine B assay relative to control
[12] = tested on: LOX IMVI; test: Cytotoxicity against human LOX IMVI cells assessed as cell viability at 10 uM incubated for 48 hrs by sulforhodamine B assay relative to control
[13] = tested on: OVCAR-5; test: Cytotoxicity against human OVCAR-5 cells assessed as cell viability at 10 uM incubated for 48 hrs by sulforhodamine B assay relative to control
[14] = tested on: SNB-75; test: Cytotoxicity against human SNB-75 cells assessed as cell viability at 10 uM incubated for 48 hrs by sulforhodamine B assay relative to control
[15] = tested on: HOP-62; test: Cytotoxicity against human HOP-62 cells assessed as cell viability at 10 uM incubated for 48 hrs by sulforhodamine B assay relative to control
[16] = tested on: Hs-578T; test: Cytotoxicity against human HS-578T cells assessed as cell viability at 10 uM incubated for 48 hrs by sulforhodamine B assay relative to control
[17] = tested on: MDA-MB-435; test: Cytotoxicity against human MDA-MB-435 cells assessed as cell viability at 10 uM incubated for 48 hrs by sulforhodamine B assay relative to control
[18] = tested on: HCT-116; test: Cytotoxicity against human HCT-116 cells assessed as cell viability at 10 uM incubated for 48 hrs by sulforhodamine B assay relative to control
[19] = tested on: PC-3; test: Cytotoxicity against human PC-3 cells assessed as cell viability at 10 uM incubated for 48 hrs by sulforhodamine B assay relative to control
[20] = tested on: SF-268; test: Cytotoxicity against human SF-268 cells assessed as cell viability at 10 uM incubated for 48 hrs by sulforhodamine B assay relative to control
[21] = tested on: SK-MEL-2; test: Cytotoxicity against human SK-MEL-2 cells assessed as cell viability at 10 uM incubated for 48 hrs by sulforhodamine B assay relative to control
[22] = tested on: SNB-19; test: Cytotoxicity against human SNB-19 cells assessed as cell viability at 10 uM incubated for 48 hrs by sulforhodamine B assay relative to control
[23] = tested on: UACC-257; test: Cytotoxicity against human UACC-257 cells assessed as cell viability at 10 uM incubated for 48 hrs by sulforhodamine B assay relative to control
[24] = tested on: BT-549; test: Cytotoxicity against human BT-549 cells assessed as cell viability at 10 uM incubated for 48 hrs by sulforhodamine B assay relative to control
[25] = tested on: SR; test: Cytotoxicity against human SR cells assessed as cell viability at 10 uM incubated for 48 hrs by sulforhodamine B assay relative to control
[26] = tested on: SW-620; test: Cytotoxicity against human SW-620 cells assessed as cell viability at 10 uM incubated for 48 hrs by sulforhodamine B assay relative to control
[27] = tested on: RXF 393; test: Cytotoxicity against human RXF 393 cells assessed as cell viability at 10 uM incubated for 48 hrs by sulforhodamine B assay relative to control
[28] = tested on: SK-MEL-5; test: Cytotoxicity against human SK-MEL-5 cells assessed as cell viability at 10 uM incubated for 48 hrs by sulforhodamine B assay relative to control
[29] = tested on: HCC 2998; test: Cytotoxicity against human HCC 2998 cells assessed as cell viability at 10 uM incubated for 48 hrs by sulforhodamine B assay relative to control
[30] = tested on: MDA-MB-231; test: Cytotoxicity against human MDA-MB-231 cells assessed as cell viability at 10 uM incubated for 48 hrs by sulforhodamine B assay relative to control
[31] = tested on: EKVX; test: Cytotoxicity against human EKVX cells assessed as cell viability at 10 uM incubated for 48 hrs by sulforhodamine B assay relative to control
[32] = tested on: RPMI-8226; test: Cytotoxicity against human RPMI-8226 cells assessed as cell viability at 10 uM incubated for 48 hrs by sulforhodamine B assay relative to control
[33] = tested on: NCI-H226; test: Cytotoxicity against human NCI-H226 cells assessed as cell viability at 10 uM incubated for 48 hrs by sulforhodamine B assay relative to control
[34] = tested on: NCI-H522; test: Cytotoxicity against human NCI-H522 cells assessed as cell viability at 10 uM incubated for 48 hrs by sulforhodamine B assay relative to control
[35] = tested on: NCI-H23; test: Cytotoxicity against human NCI-H23 cells assessed as cell viability at 10 uM incubated for 48 hrs by sulforhodamine B assay relative to control
[36] = tested on: OVCAR-8; test: Cytotoxicity against human OVCAR-8 cells assessed as cell viability at 10 uM incubated for 48 hrs by sulforhodamine B assay relative to control
[37] = tested on: HCT-15; test: Cytotoxicity against human HCT-15 cells assessed as cell viability at 10 uM incubated for 48 hrs by sulforhodamine B assay relative to control
[38] = tested on: DU-145; test: Cytotoxicity against human DU-145 cells assessed as cell viability at 10 uM incubated for 48 hrs by sulforhodamine B assay relative to control
[39] = tested on: UO-31; test: Cytotoxicity against human UO-31 cells assessed as cell viability at 10 uM incubated for 48 hrs by sulforhodamine B assay relative to control
[40] = tested on: SF-295; test: Cytotoxicity against human SF-295 cells assessed as cell viability at 10 uM incubated for 48 hrs by sulforhodamine B assay relative to control
[41] = tested on: IGROV-1; test: Cytotoxicity against human IGROV-1 cells assessed as cell viability at 10 uM incubated for 48 hrs by sulforhodamine B assay relative to control

O=S(=O)(NCCNc1nccc(-c2c(-c3cccc(F)c3)nc3sccn23)n1)c1ccc(C(F)(F)F)cc1
viability at 10 µM [1]: 96.5% | viability at 10 µM [2]: 98.2% | viability at 10 µM [3]: 70.6% | viability at 10 µM [4]: 59.3% | viability at 10 µM [5]: 88.8% | viability at 10 µM [6]: 103% | viability at 10 µM [7]: 115% | viability at 10 µM [8]: 64% | viability at 10 µM [9]: 89.8% | viability at 10 µM [10]: 91.4% | viability at 10 µM [11]: 72.4% | viability at 10 µM [12]: 88.9% | viability at 10 µM [13]: 122% | viability at 10 µM [14]: 85% | viability at 10 µM [15]: 102% | viability at 10 µM [16]: 82.6% | viability at 10 µM [17]: 71.2% | viability at 10 µM [18]: 67.8% | viability at 10 µM [19]: 57% | viability at 10 µM [20]: 77.8% | viability at 10 µM [21]: 98.8% | viability at 10 µM [22]: 94.8% | viability at 10 µM [23]: 109% | viability at 10 µM [24]: 79.3% | viability at 10 µM [25]: 89.4% | viability at 10 µM [26]: 110% | viability at 10 µM [27]: 92.1% | viability at 10 µM [28]: 84% | viability at 10 µM [29]: 111% | viability at 10 µM [30]: 92.8% | viability at 10 µM [31]: 86.5% | viability at 10 µM [32]: 83.8% | viability at 10 µM [33]: 82.8% | viability at 10 µM [34]: 85% | viability at 10 µM [35]: 86.8% | viability at 10 µM [36]: 84.1% | viability at 10 µM [37]: 72.6% | viability at 10 µM [38]: 89.2% | viability at 10 µM [39]: 51.7% | viability at 10 µM [40]: 107% | viability at 10 µM [41]: 56.6%

O=C(NCCNc1nccc(-c2c(-c3cccc(F)c3)nc3sccn23)n1)c1c(F)cccc1F
viability at 10 µM [1]: 57.5% | viability at 10 µM [2]: 66.6% | viability at 10 µM [3]: 34.5% | viability at 10 µM [4]: 17.5% | viability at 10 µM [5]: 56.9% | viability at 10 µM [6]: 65.9% | viability at 10 µM [7]: 31.6% | viability at 10 µM [8]: 66.2% | viability at 10 µM [9]: 49.7% | viability at 10 µM [10]: 29.3% | viability at 10 µM [11]: 29.1% | viability at 10 µM [12]: 32.4% | viability at 10 µM [13]: 72.7% | viability at 10 µM [14]: 59.5% | viability at 10 µM [15]: 63.8% | viability at 10 µM [16]: 53.3% | viability at 10 µM [17]: 17.4% | viability at 10 µM [18]: 24.9% | viability at 10 µM [19]: 57% | viability at 10 µM [20]: 54.4% | viability at 10 µM [21]: 62.4% | viability at 10 µM [22]: 55.2% | viability at 10 µM [23]: 54.7% | viability at 10 µM [24]: 56% | viability at 10 µM [25]: 26% | viability at 10 µM [26]: 47.3% | viability at 10 µM [27]: 57.1% | viability at 10 µM [28]: 17.1% | viability at 10 µM [29]: 70.4% | viability at 10 µM [30]: 81.2% | viability at 10 µM [31]: 61.2% | viability at 10 µM [32]: 41% | viability at 10 µM [33]: 40.7% | viability at 10 µM [34]: 42.8% | viability at 10 µM [35]: 61.9% | viability at 10 µM [36]: 44.2% | viability at 10 µM [37]: 31.1% | viability at 10 µM [38]: 50.1% | viability at 10 µM [39]: 20.8% | viability at 10 µM [40]: 66.8% | viability at 10 µM [41]: 12.1%
